From ChEMBL document CHEMBL5291721, “A preclinical secondary pharmacology resource illuminates target-adverse drug reaction associations of marketed drugs” (Nat Commun, 2023)

How the values were obtained:
D(3) dopamine receptor = D(3) dopamine receptor (Homo sapiens, UniProt P35462)
Mu-type opioid receptor = Mu-type opioid receptor (Homo sapiens, UniProt P35372)
[1] = biological target: T1, Prostaglandin G/H synthase 1 (Homo sapiens, UniProt P23219); type: functional
[2] = biological target: T1, Prostaglandin G/H synthase 1; type: functional; remark: listed apart in the source
[3] = biological target: Vascular endothelial growth factor receptor 2 (Homo sapiens, UniProt P35968); type: functional
Estrogen receptor = biological target: T2, Estrogen receptor (Homo sapiens, UniProt P03372)
T2 sequence (P03372 whole entry): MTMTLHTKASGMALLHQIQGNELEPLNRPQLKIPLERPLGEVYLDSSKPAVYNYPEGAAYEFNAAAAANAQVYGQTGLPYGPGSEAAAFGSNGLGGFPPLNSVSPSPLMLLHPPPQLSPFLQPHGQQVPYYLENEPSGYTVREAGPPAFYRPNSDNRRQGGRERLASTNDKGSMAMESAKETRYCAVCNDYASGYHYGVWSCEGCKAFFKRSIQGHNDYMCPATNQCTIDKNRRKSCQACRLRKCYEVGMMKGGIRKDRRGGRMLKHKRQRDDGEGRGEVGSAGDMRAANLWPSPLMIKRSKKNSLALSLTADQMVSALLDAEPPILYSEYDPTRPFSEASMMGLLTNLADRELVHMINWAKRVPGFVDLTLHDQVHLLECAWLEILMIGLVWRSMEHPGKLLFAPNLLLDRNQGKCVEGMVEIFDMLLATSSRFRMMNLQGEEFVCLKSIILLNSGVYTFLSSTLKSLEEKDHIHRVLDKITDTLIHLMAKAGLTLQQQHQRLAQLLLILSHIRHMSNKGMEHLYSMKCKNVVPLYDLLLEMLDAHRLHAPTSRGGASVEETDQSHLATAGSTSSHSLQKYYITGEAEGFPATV

[4] = biological target: Growth hormone secretagogue receptor type 1 (Homo sapiens, UniProt Q92847)
Chain of Growth hormone secretagogue receptor type 1 (Q92847 whole entry): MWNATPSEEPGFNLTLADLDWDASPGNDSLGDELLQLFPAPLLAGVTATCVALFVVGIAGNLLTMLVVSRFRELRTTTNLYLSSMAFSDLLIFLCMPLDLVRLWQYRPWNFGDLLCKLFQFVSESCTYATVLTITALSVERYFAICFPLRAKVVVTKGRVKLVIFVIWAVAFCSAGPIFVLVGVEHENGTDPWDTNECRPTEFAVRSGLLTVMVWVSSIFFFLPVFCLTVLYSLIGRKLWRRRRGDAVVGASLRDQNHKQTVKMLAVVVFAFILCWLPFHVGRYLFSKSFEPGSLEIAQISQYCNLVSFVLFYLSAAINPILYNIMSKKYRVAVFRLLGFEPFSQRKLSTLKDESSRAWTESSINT

Adenosine receptor A3 = biological target: T3, Adenosine receptor A3 (Homo sapiens, UniProt P0DMS8)
T3 sequence (P0DMS8 whole entry): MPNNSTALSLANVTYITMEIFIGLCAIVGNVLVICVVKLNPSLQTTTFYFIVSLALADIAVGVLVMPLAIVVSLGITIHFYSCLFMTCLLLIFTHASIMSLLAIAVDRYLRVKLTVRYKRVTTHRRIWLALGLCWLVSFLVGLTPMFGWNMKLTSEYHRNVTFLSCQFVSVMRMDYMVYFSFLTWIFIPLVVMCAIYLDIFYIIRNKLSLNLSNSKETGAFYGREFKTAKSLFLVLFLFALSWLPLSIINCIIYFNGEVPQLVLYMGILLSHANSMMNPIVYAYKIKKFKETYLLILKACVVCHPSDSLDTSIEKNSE

[5] = biological target: Delta-type opioid receptor (Homo sapiens, UniProt P41143)
Chain of Delta-type opioid receptor (P41143 whole entry): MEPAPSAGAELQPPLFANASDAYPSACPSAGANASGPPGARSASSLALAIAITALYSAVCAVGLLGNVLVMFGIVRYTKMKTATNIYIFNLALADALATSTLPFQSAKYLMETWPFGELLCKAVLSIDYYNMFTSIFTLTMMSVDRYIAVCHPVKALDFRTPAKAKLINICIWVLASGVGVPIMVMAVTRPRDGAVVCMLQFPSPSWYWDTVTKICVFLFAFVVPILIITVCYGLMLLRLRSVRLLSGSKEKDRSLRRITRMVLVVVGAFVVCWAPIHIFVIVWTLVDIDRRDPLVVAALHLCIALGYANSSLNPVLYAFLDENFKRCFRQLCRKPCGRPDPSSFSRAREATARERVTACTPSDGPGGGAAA

[6] = biological target: Beta-1 adrenergic receptor (Homo sapiens, UniProt P08588); type: functional
Chain of Beta-1 adrenergic receptor (P08588 whole entry): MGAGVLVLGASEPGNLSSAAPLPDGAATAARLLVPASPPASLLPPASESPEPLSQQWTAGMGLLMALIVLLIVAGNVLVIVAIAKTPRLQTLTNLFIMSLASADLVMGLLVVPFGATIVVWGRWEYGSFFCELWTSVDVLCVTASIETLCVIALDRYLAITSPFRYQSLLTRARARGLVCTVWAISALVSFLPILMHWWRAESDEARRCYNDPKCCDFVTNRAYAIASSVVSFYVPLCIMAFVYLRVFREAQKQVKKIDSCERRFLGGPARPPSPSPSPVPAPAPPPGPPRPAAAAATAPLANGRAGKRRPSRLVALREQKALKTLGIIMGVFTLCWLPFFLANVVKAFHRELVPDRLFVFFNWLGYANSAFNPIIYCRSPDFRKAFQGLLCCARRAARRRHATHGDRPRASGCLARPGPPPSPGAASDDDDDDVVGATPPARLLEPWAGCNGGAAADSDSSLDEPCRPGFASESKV

Vasopressin V1a receptor = Vasopressin V1a receptor (Homo sapiens, UniProt P37288)
Chain of Vasopressin V1a receptor (P37288 whole entry): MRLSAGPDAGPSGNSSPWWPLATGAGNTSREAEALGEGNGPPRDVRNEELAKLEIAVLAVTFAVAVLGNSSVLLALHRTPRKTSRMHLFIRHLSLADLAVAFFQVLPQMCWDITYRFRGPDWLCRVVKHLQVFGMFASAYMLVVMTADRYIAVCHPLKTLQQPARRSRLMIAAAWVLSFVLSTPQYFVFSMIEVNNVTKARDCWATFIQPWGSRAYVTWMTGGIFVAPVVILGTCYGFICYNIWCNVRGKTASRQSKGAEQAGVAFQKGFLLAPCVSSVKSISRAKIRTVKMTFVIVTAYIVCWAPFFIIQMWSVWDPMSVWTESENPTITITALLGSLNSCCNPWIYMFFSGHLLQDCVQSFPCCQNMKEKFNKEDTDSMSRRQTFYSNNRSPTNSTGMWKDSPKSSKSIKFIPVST

[7] = biological target: Beta-2 adrenergic receptor (Homo sapiens, UniProt P07550)
Chain of Beta-2 adrenergic receptor (P07550 whole entry): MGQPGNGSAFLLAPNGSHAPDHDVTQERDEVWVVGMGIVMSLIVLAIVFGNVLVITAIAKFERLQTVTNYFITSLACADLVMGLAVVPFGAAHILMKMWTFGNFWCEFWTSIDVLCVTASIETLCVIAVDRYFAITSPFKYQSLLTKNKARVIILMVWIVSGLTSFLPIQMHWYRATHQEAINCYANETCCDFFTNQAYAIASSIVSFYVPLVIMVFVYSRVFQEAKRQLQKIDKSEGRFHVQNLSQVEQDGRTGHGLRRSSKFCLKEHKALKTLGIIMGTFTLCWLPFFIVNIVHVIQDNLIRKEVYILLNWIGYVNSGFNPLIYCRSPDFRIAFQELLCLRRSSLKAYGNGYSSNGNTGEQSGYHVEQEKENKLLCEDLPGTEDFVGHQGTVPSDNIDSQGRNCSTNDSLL

[8] = biological target: T4, Muscarinic acetylcholine receptor M2 (Homo sapiens, UniProt P08172); type: functional, cell-based
T4 sequence (P08172 whole entry): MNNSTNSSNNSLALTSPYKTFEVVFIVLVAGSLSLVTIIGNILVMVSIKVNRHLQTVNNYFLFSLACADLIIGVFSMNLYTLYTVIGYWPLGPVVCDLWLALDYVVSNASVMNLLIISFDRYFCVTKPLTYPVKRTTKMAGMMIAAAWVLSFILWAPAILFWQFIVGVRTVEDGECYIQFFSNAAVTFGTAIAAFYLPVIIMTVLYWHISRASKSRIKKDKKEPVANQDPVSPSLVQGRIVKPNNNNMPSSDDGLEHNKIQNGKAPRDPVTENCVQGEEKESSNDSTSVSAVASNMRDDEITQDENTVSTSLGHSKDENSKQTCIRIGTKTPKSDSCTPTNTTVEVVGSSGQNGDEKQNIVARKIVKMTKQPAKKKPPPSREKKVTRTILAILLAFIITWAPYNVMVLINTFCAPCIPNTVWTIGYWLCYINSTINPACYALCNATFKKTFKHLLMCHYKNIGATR

[9] = biological target: T5, Prostaglandin G/H synthase 1 (Rattus norvegicus, UniProt Q63921); type: functional
T5 sequence (Q63921 whole entry): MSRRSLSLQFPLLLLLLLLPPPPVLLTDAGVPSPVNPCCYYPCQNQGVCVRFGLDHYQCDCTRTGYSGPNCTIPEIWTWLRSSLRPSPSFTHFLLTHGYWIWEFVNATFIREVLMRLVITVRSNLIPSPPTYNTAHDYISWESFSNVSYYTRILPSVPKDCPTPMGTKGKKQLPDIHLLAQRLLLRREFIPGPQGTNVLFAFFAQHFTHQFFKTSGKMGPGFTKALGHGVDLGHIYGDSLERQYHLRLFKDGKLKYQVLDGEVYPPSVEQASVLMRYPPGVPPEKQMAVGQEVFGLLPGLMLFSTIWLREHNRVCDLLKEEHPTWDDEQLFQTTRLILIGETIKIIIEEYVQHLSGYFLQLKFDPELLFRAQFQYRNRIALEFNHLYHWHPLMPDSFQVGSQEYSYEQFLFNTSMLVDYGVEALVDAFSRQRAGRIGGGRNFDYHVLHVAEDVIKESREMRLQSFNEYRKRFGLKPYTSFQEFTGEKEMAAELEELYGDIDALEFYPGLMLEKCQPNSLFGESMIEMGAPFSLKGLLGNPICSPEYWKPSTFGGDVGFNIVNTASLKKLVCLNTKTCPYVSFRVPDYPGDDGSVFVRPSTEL

Cannabinoid receptor 1 = Cannabinoid receptor 1 (Homo sapiens, UniProt P21554); type: functional, cell-based
Chain of Cannabinoid receptor 1 (P21554 whole entry): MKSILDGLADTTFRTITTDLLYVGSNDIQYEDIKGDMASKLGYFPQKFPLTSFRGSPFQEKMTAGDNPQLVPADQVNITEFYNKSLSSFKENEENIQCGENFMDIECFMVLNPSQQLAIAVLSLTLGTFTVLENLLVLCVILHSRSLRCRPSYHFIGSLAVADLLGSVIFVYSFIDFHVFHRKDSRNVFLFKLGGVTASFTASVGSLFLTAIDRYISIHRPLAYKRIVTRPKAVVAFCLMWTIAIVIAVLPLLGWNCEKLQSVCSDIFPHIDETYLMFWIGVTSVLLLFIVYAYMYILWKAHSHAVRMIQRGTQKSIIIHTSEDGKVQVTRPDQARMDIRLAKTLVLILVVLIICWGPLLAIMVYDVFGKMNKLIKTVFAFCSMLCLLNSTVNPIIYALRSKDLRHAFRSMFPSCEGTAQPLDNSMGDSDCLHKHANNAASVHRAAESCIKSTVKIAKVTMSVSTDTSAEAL
Also: assay procedure not described here.

Chain of D(3) dopamine receptor (P35462 whole entry): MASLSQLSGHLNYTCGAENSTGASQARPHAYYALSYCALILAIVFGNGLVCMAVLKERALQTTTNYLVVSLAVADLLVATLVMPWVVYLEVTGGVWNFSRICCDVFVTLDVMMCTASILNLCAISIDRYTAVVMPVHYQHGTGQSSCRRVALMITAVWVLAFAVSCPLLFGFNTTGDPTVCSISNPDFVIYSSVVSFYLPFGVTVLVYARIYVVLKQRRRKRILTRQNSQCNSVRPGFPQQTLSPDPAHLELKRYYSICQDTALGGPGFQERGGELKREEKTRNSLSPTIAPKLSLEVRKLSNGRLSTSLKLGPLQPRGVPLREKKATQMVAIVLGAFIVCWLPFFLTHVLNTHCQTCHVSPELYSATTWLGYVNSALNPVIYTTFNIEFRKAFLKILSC
Chain of Mu-type opioid receptor (P35372 whole entry): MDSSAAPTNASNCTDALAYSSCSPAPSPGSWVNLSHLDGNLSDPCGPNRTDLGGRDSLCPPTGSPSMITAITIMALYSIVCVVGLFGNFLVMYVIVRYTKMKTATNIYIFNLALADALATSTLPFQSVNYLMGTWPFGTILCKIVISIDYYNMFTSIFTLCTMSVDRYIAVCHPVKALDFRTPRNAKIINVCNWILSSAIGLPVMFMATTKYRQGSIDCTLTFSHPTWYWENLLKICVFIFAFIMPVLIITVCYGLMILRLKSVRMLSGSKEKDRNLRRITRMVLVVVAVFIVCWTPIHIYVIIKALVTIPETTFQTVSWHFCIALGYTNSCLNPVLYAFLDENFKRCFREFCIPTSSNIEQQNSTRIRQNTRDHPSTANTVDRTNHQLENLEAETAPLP
T1 sequence (P23219 whole entry): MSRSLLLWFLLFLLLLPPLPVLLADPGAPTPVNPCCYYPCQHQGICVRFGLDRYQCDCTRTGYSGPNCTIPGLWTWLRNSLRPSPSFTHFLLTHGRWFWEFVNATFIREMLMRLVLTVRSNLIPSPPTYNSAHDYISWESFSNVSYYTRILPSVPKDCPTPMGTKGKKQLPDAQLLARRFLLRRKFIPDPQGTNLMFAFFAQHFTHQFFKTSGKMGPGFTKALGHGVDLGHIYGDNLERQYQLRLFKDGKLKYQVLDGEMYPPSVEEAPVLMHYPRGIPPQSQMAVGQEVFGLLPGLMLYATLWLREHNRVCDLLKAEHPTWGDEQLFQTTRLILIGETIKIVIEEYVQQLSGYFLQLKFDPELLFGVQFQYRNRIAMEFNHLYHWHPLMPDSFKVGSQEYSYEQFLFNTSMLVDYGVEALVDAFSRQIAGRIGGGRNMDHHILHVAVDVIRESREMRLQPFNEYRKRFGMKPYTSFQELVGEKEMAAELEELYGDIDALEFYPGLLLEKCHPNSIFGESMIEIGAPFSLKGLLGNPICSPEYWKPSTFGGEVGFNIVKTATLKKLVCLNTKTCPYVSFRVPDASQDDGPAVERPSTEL

Row | Compound | AC50 (D(3) dopamine receptor) | AC50 (Mu-type opioid receptor) | AC50 [1] | AC50 [2] | AC50 [3] | AC50 (Estrogen receptor) | AC50 [4] | AC50 (Adenosine receptor A3) | AC50 [5] | AC50 [6] | AC50 (Vasopressin V1a receptor) | AC50 [7] | AC50 [8] | AC50 [9] | AC50 (Cannabinoid receptor 1)
1 | Cc1cc2c(cc1S(N)(=O)=O)S(=O)(=O)CCC2 | > 30 µM | > 30 µM | > 30 µM | > 30 µM | > 30 µM | – | – | – | – | – | – | – | – | – | –
2 | C[C@H](N[C@@H](CCc1ccccc1)C(=O)O)C(=O)N1Cc2ccccc2C[C@H]1C(=O)O | > 30 µM | > 30 µM | > 30 µM | > 30 µM | > 30 µM | – | – | – | – | – | – | – | – | – | –
3 | O=C(O)[C@@H]1C[C@@H](O)CN1 | – | > 10 µM | > 30 µM | > 30 µM | > 30 µM | – | – | – | – | – | – | – | – | – | –
4 | CC1(C)S[C@@H]2[C@H](/N=C/N3CCCCCC3)C(=O)N2[C@H]1C(=O)O [AMDINOCILLIN] | > 30 µM | > 30 µM | > 30 µM | 14.5 µM | > 30 µM | – | – | – | – | – | – | – | – | – | –
5 | CC(=O)[C@]1(N)Cc2c(O)c3c(c(O)c2[C@@H](O[C@H]2C[C@H](O)[C@H](O)CO2)C1)C(=O)c1ccccc1C3=O [AMRUBICIN] | > 30 µM | > 30 µM | 2.81 µM | 3.62 µM | > 30 µM | – | – | – | – | – | – | – | – | – | –
6 | NC(=O)[C@@H]1CC[C@@H]2CN1C(=O)N2OS(=O)(=O)O [AVIBACTAM] | > 30 µM | > 30 µM | > 30 µM | > 30 µM | > 30 µM | – | – | – | – | – | – | – | – | – | –
7 | CC(=O)OC[C@H]1O[C@@H](n2ncc(=O)[nH]c2=O)[C@H](OC(C)=O)[C@@H]1OC(C)=O [AZARIBINE] | > 30 µM | > 30 µM | > 30 µM | > 30 µM | > 30 µM | – | – | – | – | – | – | – | – | – | –
8 | O=C(/C=C/c1cccc(S(=O)(=O)Nc2ccccc2)c1)NO [BELINOSTAT] | > 30 µM | > 30 µM | 6.9 µM | 5.61 µM | – | > 30 µM | > 30 µM | > 30 µM | > 30 µM | > 10 µM | > 10 µM | > 10 µM | – | – | –
9 | CC(C)(C)NC(=O)N[C@H](C(=O)N1C[C@H]2[C@@H]([C@H]1C(=O)NC(CC1CCC1)C(=O)C(N)=O)C2(C)C)C(C)(C)C (stereo partly specified) [BOCEPREVIR] | > 30 µM | > 30 µM | > 30 µM | > 30 µM | > 30 µM | – | – | – | – | – | – | – | – | – | –
10 | C[C@H](CCC(=O)O)[C@H]1CC[C@H]2[C@@H]3[C@H](O)C[C@@H]4C[C@H](O)CC[C@]4(C)[C@H]3C[C@H](O)[C@]12C [CHOLIC ACID] | – | – | – | – | > 30 µM | – | – | – | – | – | – | – | – | – | –
11 | CC(=O)OCC(=O)[C@@]1(O)CC[C@H]2[C@@H]3CCC4=CC(=O)CC[C@]4(C)[C@H]3[C@@H](O)C[C@@]21C [HYDROCORTISONE ACETATE] | – | > 30 µM | > 30 µM | > 30 µM | > 30 µM | – | – | – | – | – | – | – | – | – | –
12 | CNCCc1ccc(OC(=O)C(C)C)c(OC(=O)C(C)C)c1 [IBOPAMINE] | – | – | – | – | – | > 30 µM | > 30 µM | > 30 µM | > 30 µM | > 30 µM | > 30 µM | > 30 µM | > 30 µM | > 30 µM | > 30 µM
13 | CCC[C@@H]1C[C@@H](C(=O)N[C@@H]([C@H]2O[C@H](SC)[C@H](O)[C@@H](O)[C@H]2O)[C@@H](C)O)N(C)C1 [LINCOMYCIN] | – | – | – | – | – | > 10 µM | > 10 µM | > 10 µM | > 30 µM | > 10 µM | > 10 µM | > 10 µM | > 10 µM | > 10 µM | > 30 µM
14 | COC(=O)C1=C(C)NC(C)=C(C(=O)OCCN2CCN(C(c3ccccc3)c3ccccc3)CC2)C1c1cccc([N+](=O)[O-])c1 (stereo unspecified) [MANIDIPINE 6300] | – | – | – | – | – | > 1 µM | > 30 µM | 3.8 µM | > 30 µM | > 30 µM | > 30 µM | > 30 µM | > 30 µM | 7.4 µM | > 30 µM
15 | CN(Cc1cnc2nc(N)nc(N)c2n1)c1ccc(C(=O)N[C@@H](CCC(=O)O)C(=O)O)cc1 [METHOTREXATE] | – | – | – | – | – | > 30 µM | > 30 µM | > 30 µM | > 30 µM | > 10 µM | > 30 µM | > 10 µM | > 10 µM | > 30 µM | > 30 µM
16 | O=C1c2ccccc2C(=O)C1c1ccccc1 [PHENINDIONE] | – | – | – | – | – | > 10 µM | > 10 µM | > 10 µM | > 30 µM | > 10 µM | > 10 µM | > 10 µM | > 10 µM | > 10 µM | > 30 µM
17 | Cc1cccc(C)c1NC(=O)CC12CCCN1CCC2 [PILSICAINIDE] | – | – | – | – | – | > 30 µM | > 30 µM | > 30 µM | > 30 µM | > 30 µM | > 30 µM | > 30 µM | > 30 µM | > 30 µM | > 30 µM
18 | CCCN1CC(NS(=O)(=O)N(CC)CC)CC2Cc3c(O)cccc3CC21 (stereo unspecified) [QUINAGOLIDE] | – | – | – | – | – | > 30 µM | > 30 µM | > 30 µM | > 30 µM | > 30 µM | > 30 µM | > 30 µM | > 30 µM | > 30 µM | > 30 µM
19 | O=S1(=O)CCN(CN2CCS(=O)(=O)NC2)CN1 [TAUROLIDINE] | > 30 µM | > 30 µM | > 30 µM | > 30 µM | – | > 30 µM | – | > 30 µM | > 30 µM | > 30 µM | – | – | > 30 µM | > 30 µM | > 30 µM
20 | C[C@]12C=CC(=O)C=C1CC[C@@H]1[C@@H]2CC[C@]2(C)OC(=O)CC[C@@H]12 [TESTOLACTONE] | – | – | – | – | – | > 10 µM | > 10 µM | > 10 µM | > 30 µM | > 10 µM | > 10 µM | > 10 µM | > 10 µM | > 10 µM | > 30 µM
21 | CCOC(=O)c1c(CSc2ccccc2)n(C)c2cc(Br)c(O)c(CN(C)C)c12 [UMIFENOVIR] | – | – | – | – | – | > 30 µM | > 30 µM | > 30 µM | > 30 µM | > 30 µM | > 30 µM | > 30 µM | > 30 µM | 19 µM | > 30 µM
